Data set [1] can be described thus: Crushing strength of compressed pure deramciclane-fumarate powder. The data set is classed as physicochemical. To be noted: 300 mg powder, die cavity of 10 mm diameter, eccentric press, compression force 5-40 kN. The text has this:
Due to the weak cohesion characteristics of deramciclane-fumarate on compression of the particles of the active ingredient acceptable tablet strength can not be obtained.

Another data set in a line: Water solubility. Format: physicochemical.

The source of these data is patent US20060258745A1, “Deramciclane-fumarate tablets” (EGIS GYOGYSZERGYAR RT., priority 2003, published 2006).

As to `CN(C)CCOC1(c2ccccc2)CC2CCC1(C)C2(C)C.O=C(O)/C=C/C(=O)O` [deramciclane-fumarate, (1R,2S,4R)-(−)-2-dimethylaminoethoxy-2-phenyl-1,7,7-trimethyl-bicyclo[2.2.1]heptane-2-(E)-butenedioate (1:1)], the “crushing strength of the tablets” value in data set [1] was at most 10 N. Moreover, the water solubility result in the data set “Water solubility” is given as “low water solubility”.
